In patent US20030196279A1, “Single-bath biopreparation and dyeing of textiles” (Novozymes North America, Inc., priority 1999, published 2003):

Tests used:
pectate lyase = experiment: Compatibility of pectate lyase with dyes, vibration viscometry assay on polygalacturonic acid; assay type: biochemical; settings: 0.5 ml of 10 g/l dye solution added; pH 8.5, 40° C., 20 minutes; relative to none-dye control
Method: An analytical assay is used in compatibility tests. Prior to this assay, 5 mM phosphate buffer pH 8.5 is made up using KH2PO4 and NaOH (both from Fisher). The other solutions are constituted as follows:
i) The substrate is polygalacturonic acid in sodium salt form (from SIGMA). The substrate solution is made up to 11.436 g/l by dissolving polygalacturonic acid sodium salt in the phosphate buffer.
ii) Dye solutions are made up to 10 g/l by dissolving a commercial dye in the phosphate buffer.
iii) An internal standard pectate lyase (2600 APSU/g) is used. The enzyme solution is made up to 500 APSU/ml by dissolving the pectate lyase in the phosphate buffer.
During the assay, 3.5 ml substrate solution was pipetted into each tube. 0.5 ml of a dye solution or buffer was added and mixed well. The tube was then preheated in 40° C. water bath for 5 minutes. A total of 0.5 ml solution, including enzyme, and buffer was added using Hamilton Micro Lab 900. In dye compatibility, the 0.5 ml solution was made up with 40 μl enzyme solution and 460 μl buffer. For standard curve, 0-90 μl enzyme solution was used. Once enzyme was added, the solution was mixed immediately and the tube incubated at 40° C. for 20 minutes. The viscosity was then measured after putting the tube on a vibration viscometer (Sofraser Viscometer-mivi 3000, from France) for 10 seconds. At all conditions, experiments were performed in duplicate.
A standard linear curve was obtained within 0-5 APSU/ml pectate lyase concentration range (0-45 μl enzyme solution added). The correlation is given in the equation below: […]
Since the Y was obtained from experimental measurements, X was then calculated using the above equation. The enzyme activity with the addition of dye was compared to the activity of none-dye control. The relative activity is illustrated in Table 13. […] Since the chromophore structure of reactive dye shares similar chemical structure of direct dye and other dye classes, similar compatibility results may be expected for other dye classes. […] Since commercial dyes are not pure and often contains salt, the positive impact may be due to the salt in dye formula.

[1] = test system: pectate lyase activity on woven cotton fabric; settings: Example 5; 2000 APSU/kg pectate lyase, pH 9.2, 60° C., 30 minutes, woven fabric 480U
Method: A buffer containing 2 mM borate at pH 9.2 and 1 g/l nonionic surfactant Tergitol 15-S-12 was prepared. The solution was transferred to Labomat beakers (Werner-Mathis USA, Inc., NC). […] Swatches of a woven fabric (type 480U from Testfabrics, Inc., PA) were then added to the beakers so that the liquor-to-fabric ratio was 10 ml/g. After the temperature was raised to 60° C., 2000 APSU/kg fiber of pectate lyase were added and the fabric was incubated at 60° C. for 30 minutes. The swatches were then removed and rinsed twice in hot and cold water.
The amount of residual pectic substances remaining on the fabric was determined by measuring the color strength of the fabric dyed with Ruthenium red, a dye with an affinity for pectic substances. For the Ruthenium red assay, a fresh solution was prepared containing 0.2 g/l Ruthenium red, 1.0 g/l ammonium chloride, 2.5 ml/l 28% ammonium hydroxide solution, 1.0 g/l Silwet L-77 (Wetter, Polyalkyleneoxide modified heptamethyltrisiloxane), and 1.1 g/l Tergitol 15-S-12. The solution was used at a ratio of 100 ml solution/gram of fabric. Fabric swatches were dyed at room temperature in Labomat beakers for 15 minutes and then rinsed with cold water. After drying, the color of swatches was assessed by measuring the reflectance of the Ruthenium red-dyed fabric on Macbeth color eye at 540 nm, and the dye on the fabric was calculated as K/S value.

[2] = Wetting test, water drop test, AATCC Test Method 79-1992; settings: Example 10; added to pectinase biopreparation and dyeing solution
Method: The wetting test was performed using water according to AATCC Test Method 79-1992. Five measurements were taken from each of three areas along the fabric in this water drop test. Color measurements were made using reflectance Macbeth Color Eye System with Optiview 1.7 software, using 10° standard observer and illuminant D65, which represents average daylight over range of 380-830 nm. Ten measurements at different positions of fabric tube were carried out.

Row | Molecule | % Activity (relative pectate lyase activity) (pectate lyase) [%] | also measured
1 | C=C(Br)C(=O)Nc1ccc(N=Nc2c(NC)ccc3cc(S(=O)(=O)[O-])cc(O)c23)c(S(=O)(=O)[O-])c1.[Na+].[Na+] [Lanasol Red 5B] | 117.6 | 
2 | Nc1c(N=Nc2ccc(S(=O)(=O)CCOS(=O)(=O)[O-])cc2)c(S(=O)(=O)[O-])cc2cc(S(=O)(=O)[O-])c(N=Nc3ccc(S(=O)(=O)CCOS(=O)(=O)[O-])cc3)c(O)c12.[Na+].[Na+].[Na+].[Na+] [Remazol Black B] | 114.8 | 
3 | Nc1c(S(=O)(=O)[O-])cc(Nc2cccc(S(=O)(=O)CCOS(=O)(=O)[O-])c2)c2c1C(=O)c1ccccc1C2=O.[Na+].[Na+] [Remazol Br. Blue R Spec.] | 200.9 | 
4 | CC(=O)Nc1ccc2cc(S(=O)(=O)O)c(N=Nc3ccc(S(=O)(=O)CCOS(=O)(=O)O)cc3)c(O)c2c1.[Na] [Remazol Br. Orange 3R] | 110.1 | 
5 | O=S(=O)([O-])[O-].[Na+].[Na+] [sodium sulfate] |  | sodium sulfate concentration at which a minimum amount of pectic residue was left on the fabric [1]: about 20 g/l
6 | O=P(O)(O)OP(=O)(O)OP(=O)(O)O [sodium tripoly phosphate (STPP), sodium tripoly phosphate] |  | wettability (wetting time in the drop test, FIG. 2) [2]: better wettability
7 | cellulase |  | wettability (wetting time in the drop test, FIG. 2) [2]: better wettability
